Assay results as given in paper PMC6325233, “A Novel Actin Binding Drug with In Vivo Efficacy” (Antimicrobial Agents and Chemotherapy, 2018).
Read-outs that look alike come from different tables or passages of the source.

Columns and labels:
yeast = conditions: cited from earlier work
Text: Occidiofungin is a nonribosomally synthesized glycolipopeptide produced by the soil bacterium Burkholderia contaminans MS14 ([21]). It is a cyclic peptide with a base mass of 1,200 Da (Fig. 1) ([21]). Occidiofungin has a wide spectrum of activities against filamentous and nonfilamentous fungi and minimal toxicity in an animal system ([21], [22]).

[1] = system: S. cerevisiae (BY4743, diploid); assay: DNA (nuclear) segregation assay, DAPI; format: cell-based; conditions: for percentage of cells in category, column 2 / percentage of cells in category, column 4 / percentage of cells in category, column 3 / percentage of cells in category, column 1: 0.5X MIC, 30 °C, two experiments; for percentage of cells in category, column 2: untreated 3.9 ± 1.2; for percentage of cells in category, column 4: untreated 1.4 ± 0.5; for percentage of cells in category, column 3: untreated 13.7 ± 2.5; for percentage of cells in category, column 1: untreated 80.4 ± 2.6
Experimental: (§1) The hyphal induction assay was performed as previously reported with minor modifications ([58]). Candida albicans strain ATCC 66027 was grown in yeast extract-peptone-dextrose (YPD) medium at 30°C for 48 h to reach saturation with an OD600 of 17 to 19. Cells were diluted into fresh Spider medium (1% nutrient broth, 1% mannitol, 0.2% K2HPO4) to obtain an OD600 of 0.05 (∼0.5 × 10^6 to 1 × 10^6 cells/ml) and incubated at 37°C with shaking to induce hyphal formation. Immediately prior to the 37°C incubation, occidiofungin (1 µg/ml; 0.5× MIC) or an equal volume of DMSO was added to the cultures. Aliquots were removed at 0-, 1-, 2-, 4-, and 6-h time points and fixed in 3.7% formaldehyde for later analysis of cell morphology by light microscopy. More than 200 cells were examined for each time point, and cells were scored as having either a yeast or filamentous form, with cells showing any outgrowth considered filamentous. DNA segregation assays were performed using a mid-log culture of S. cerevisiae (BY4743, diploid) and C. albicans (ATCC 66027). The cultures were diluted in fresh YPD medium to obtain OD600s of 0.095 (∼1 × 10^6 to 1.5 × 10^6 cells/ml) and 0.05 (0.5 × 10^6 to 0.8 × 10^6 cells/ml), respectively. A blank vehicle control (DMSO) or occidiofungin (1 µg/ml; 0.5× MIC) was added, and the cultures were placed at 30°C with shaking. Samples were removed at 0.5, 1, and 2 h, and the cells fixed by adding formaldehyde (3.7%). The cells were washed in phosphate-buffered saline (PBS) and permeabilized by adding an equivalent volume of PBS containing 0.2% Triton X-100 for 30 min at room temperature. The cells were washed thrice in PBS, added to concanavalin A-treated glass slides, and overlaid with Vectashield plus DAPI (4′,6-diamidino-2-phenylindole). Images were viewed using a Nikon 50i fluorescence microscope with a 100× oil immersion objective and DAPI filter. Cells were scored on the basis of bud morphology and DNA location. One-way analyses of variance (ANOVAs) with post hoc Tukey’s honestly significant difference (HSD) testing were used to determine statistically significant differences in the distributions between treated and untreated cells. In addition, FM-464 uptake assays were used to observe endocytosis. Three 1-ml aliquots of S. pombe (OD600 of 0.6 to 0.8) were treated with 1 μl DMSO, 0.5 μg/ml (0.5× MIC), or 1 μg/ml (1× MIC) of native occidiofungin for 30 min at 30°C. The cells were washed thrice with PBS and resuspended in YPD medium containing […] FM-464 (Thermo Fisher Scientific). The cells were incubated for 60 min at 30°C, followed by two washes in PBS before visualizing on an Olympus FV1000 confocal microscope with a 40×/0.9 dry objective. Lastly, actin polymerization and depolymerization assays were performed using the Actin polymerization biochem kit (catalog number BK003; Cytoskeleton, Inc.) according to the manufacturer’s instructions.

C. albicans (ATCC 66027) = assay: DNA (nuclear) segregation assay, DAPI; format: cell-based; conditions: for percentage of cells in category, column 2: untreated 10.3 ± 3.8; for percentage of cells in category, column 4: untreated 1.0 ± 0.4; for percentage of cells in category, column 3: untreated 26.6 ± 5.6
Experimental: as §1

[2] = subinhibitory concentration, within 30 min
[3] = 0.5X MIC, 0.5 h, 30 °C, two experiments
[4] = 0.5X MIC, 1 h, 30 °C, two experiments, * p < 0.05

occidiofungin
impact on growth rate of yeast (yeast; subinhibitory concentrations): little to no impact on the growth rate of yeast
induction of apoptosis (yeast; yeast cells at the MIC): rapidly induces apoptosis in yeast cells
percentage of cells in category (bud morphology and DNA localization), column 1 [1]: 66.9 ± 6.8%
percentage of cells in category, column 2 ([1]; 0.5 h, * p < 0.05): 0.2 ± 0.3%
percentage of cells in category, column 4 ([1]; 0.5 h, ** p < 0.01): 12.3 ± 0.6%
percentage of cells in category, column 3 ([1]; 0.5 h): 20.5 ± 6.5%
percentage of cells in category, column 2 ([1]; 1 h, * p < 0.05): 0.4 ± 0.1%
percentage of cells in category, column 3 ([1]; 1 h, * p < 0.05): 25.4 ± 4.7%
percentage of cells in category, column 4 ([1]; 1 h, ** p < 0.01): 15.1 ± 2.9%
percentage of cells in category, column 1 ([1]; 1 h, ** p < 0.01): 59.1 ± 7.7%
percentage of cells in category, column 2 ([1]; 2 h, * p < 0.05): 0.6 ± 0.8%
percentage of cells in category, column 1 ([1]; 2 h, * p < 0.05): 63.5 ± 2.2%
percentage of cells in category, column 4 ([1]; 2 h, ** p < 0.01): 13.3 ± 0.7%
percentage of cells in category, column 3 ([1]; 2 h): 22.7 ± 2.3%
binucleated cells [1, 2]: more binucleated cells
percentage of cells in category, column 1 (C. albicans (ATCC 66027)): 58.1 ± 6.6%
percentage of cells in category, column 2 (C. albicans (ATCC 66027); 0.5X MIC, 0.5 h, 30 °C, two experiments, * p < 0.05): 1 ± 0.7%
percentage of cells in category, column 4 (C. albicans (ATCC 66027); [3]): 5.6 ± 0.4%
percentage of cells in category, column 3 (C. albicans (ATCC 66027); [3]): 35.3 ± 6.8%
percentage of cells in category, column 4 (C. albicans (ATCC 66027); [4]): 8.1 ± 2.8%
percentage of cells in category, column 2 (C. albicans (ATCC 66027); [4]): 0.9 ± 0.1%
percentage of cells in category, column 3 (C. albicans (ATCC 66027); 0.5X MIC, 1 h, 30 °C, two experiments): 28.1 ± 1.3%
percentage of cells in category, column 1 (C. albicans (ATCC 66027); 0.5X MIC, 1 h, 30 °C, two experiments, untreated 62.1 ± 8.8): 62.9 ± 4.2%
percentage of cells in category, column 2 (C. albicans (ATCC 66027); 0.5X MIC, 2 h, 30 °C, two experiments, * p < 0.05): 0.4 ± 0.6%
percentage of cells in category, column 4 (C. albicans (ATCC 66027); 0.5X MIC, 2 h, 30 °C, two experiments, ** p < 0.01): 11.4 ± 3.8%
percentage of cells in category, column 3 (C. albicans (ATCC 66027); 0.5X MIC, 2 h, 30 °C, two experiments): 26.3 ±12.1%
percentage of cells in category, column 1 (C. albicans (ATCC 66027); 0.5X MIC, 2 h, 30 °C, two experiments, untreated 62.1 ± 8.8): 61.9 ± 7.7%
binucleated cells (C. albicans (ATCC 66027); [2]): more binucleated cells
